Among the data in PubChem BioAssay (NCI) are GI50 and TGI values, retold here.

Among the test systems are A549 NSCLC; KM12 colon; M14 melanoma; NCI-H522 lung; OVCAR-5 ovarian; SF-295 CNS; SK-MEL-5 melanoma; SNB-19 CNS; TK-10 renal; SF-539 CNS.
Test in all cases: inhibition of tumour cell growth, NCI panel, 48 h

Molecules are shown by their SMILES.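 Each compound was tested at five concentrations against cells in 96-well plates for 48 hours. Abbreviation: GI50, concentration required for 50% inhibition of growth. TGI is the concentration that stops growth completely.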 Bounds are passed on as bounds.

Turning to `C=C1CC[C@@H]2[C@](C)(COC(C)=O)[C@H](OC(C)=O)CC[C@@]2(C)[C@@H]1CC(Sc1ccccc1)C1=CCOC1=O` (some centres undefined), the GI50 with A549 NSCLC was 2.73 µM; in the assay with KM12 colon, 1.4 µM; with M14 melanoma, 1.47 µM; in the assay on NCI-H522 lung, 1.35 µM; in the assay on OVCAR-5 ovarian, 2.46 µM; with SF-295 CNS, 4.12 µM. The results for the GI50 with SK-MEL-5 melanoma, with SNB-19 CNS and with TK-10 renal were 1.42 µM, 1.78 µM and 2.83 µM, respectively. For the same compound, the TGI is 7.77 µM in the assay with A549 NSCLC; 2.96 µM in the assay on KM12 colon; 3.69 µM in the assay on M14 melanoma; 2.98 µM in the assay with NCI-H522 lung; 4.67 µM in the assay with OVCAR-5 ovarian; 27.3 µM in the assay with SF-295 CNS. Moreover, the TGI with SK-MEL-5 melanoma is 2.82 µM; with SNB-19 CNS it was 3.77 µM; in the assay on TK-10 renal, 5.54 µM.
In the case of `C=C1C(=O)OC2CCN3CC=C(COC(=O)C(C)(O)C4(CO4)C1C)C23` (centres undefined), the TGI in the assay on A549 NSCLC, in the assay on KM12 colon, with M14 melanoma, in the assay on NCI-H522 lung, in the assay with SF-295 CNS and in the assay with SK-MEL-5 melanoma was above 100 µM throughout. In addition, the TGI with SNB-19 CNS and in the assay on TK-10 renal was above 100 µM throughout.
With `N#Cc1nc(Nc2cccc3ccccc23)sc1N`, the TGI is above 100 µM in the assay with A549 NSCLC; above 100 µM with KM12 colon; above 100 µM in the assay with M14 melanoma; 46.4 µM in the assay with NCI-H522 lung; above 100 µM with OVCAR-5 ovarian; above 100 µM with SF-295 CNS. Also, the results for the TGI with SF-539 CNS, in the assay on SNB-19 CNS and in the assay on TK-10 renal were 76.6 µM, above 100 µM and 76.9 µM, respectively.
For the compound `CS(=O)(=O)Nc1ccc2c(c1)oc(=O)c1ccccc12`, the TGI in the assay with A549 NSCLC, in the assay with KM12 colon, in the assay on M14 melanoma, in the assay on NCI-H522 lung, with OVCAR-5 ovarian and with SF-295 CNS was above 100 µM in each case. Besides, the TGI with SF-539 CNS, in the assay with SK-MEL-5 melanoma and in the assay on SNB-19 CNS was above 100 µM in each case.
Regarding `COc1cc2nc(-c3ccc(Cl)cc3)cc(OCCCN3CCCCC3)c2cc1OC`, the GI50 was 1.9 µM in the assay with A549 NSCLC; 3.07 µM in the assay on KM12 colon; 0.412 µM in the assay on M14 melanoma; 3.28 µM in the assay with NCI-H522 lung; 1.16 µM in the assay on OVCAR-5 ovarian; 1.21 µM in the assay on SF-295 CNS. For the same compound, the results for the GI50 in the assay on SK-MEL-5 melanoma, with SNB-19 CNS and in the assay with TK-10 renal were 1.1 µM, 2.98 µM and 3.73 µM, respectively. The TGI was above 100 µM in the assay with A549 NSCLC; above 100 µM with KM12 colon; 1.67 µM in the assay with M14 melanoma; above 100 µM with NCI-H522 lung; above 100 µM with OVCAR-5 ovarian; 2.81 µM with SF-295 CNS. Also, the TGI in the assay on SK-MEL-5 melanoma was 2.32 µM; in the assay with SNB-19 CNS, above 100 µM; in the assay with TK-10 renal it was above 100 µM.
On to `COc1cc(C(Cc2ccccc2)NC(C)=O)oc(=O)c1` (centres undefined), for which the TGI with A549 NSCLC, in the assay on KM12 colon, in the assay with M14 melanoma, in the assay on NCI-H522 lung, with OVCAR-5 ovarian and in the assay on SF-295 CNS was above 100 µM in each case. In addition, the TGI in the assay with SK-MEL-5 melanoma, with SNB-19 CNS and in the assay with TK-10 renal was above 100 µM throughout.
Consider `COc1cc(N(CCC#N)CCC#N)ccc1/C(N=Nc1ccc([N+](=O)[O-])cc1)=N/NC(=O)c1cc(Br)ccc1O`, for which the GI50 is 44.4 µg/mL with A549 NSCLC; 28.5 µg/mL in the assay with KM12 colon; 44.5 µg/mL with M14 melanoma; 53.4 µg/mL in the assay with NCI-H522 lung; 50 µg/mL in the assay with OVCAR-5 ovarian; 29.9 µg/mL in the assay with SF-295 CNS. The GI50 in the assay on SF-539 CNS is 33.2 µg/mL; in the assay on SK-MEL-5 melanoma, 26.3 µg/mL; in the assay with SNB-19 CNS it was 58.5 µg/mL. Also, the TGI in the assay with A549 NSCLC was 140 µg/mL; with KM12 colon, 71 µg/mL; in the assay with M14 melanoma it was 148 µg/mL; with NCI-H522 lung, above 150 µg/mL; in the assay with OVCAR-5 ovarian, above 150 µg/mL; in the assay on SF-295 CNS it was 69.6 µg/mL. The values for the TGI in the assay with SF-539 CNS, in the assay on SK-MEL-5 melanoma and with SNB-19 CNS were 122 µg/mL, 46.9 µg/mL and above 150 µg/mL, respectively.
`Cn1c2ccccc2c2c3c(c4c5cc(Br)ccc5n(C)c4c21)C(=O)N(O)C3=O`: the GI50 in the assay on A549 NSCLC was 0.262 µM; with KM12 colon it was 0.426 µM; with NCI-H522 lung, 0.167 µM; with SF-295 CNS, 0.217 µM; with SF-539 CNS it was 0.0403 µM; in the assay on SK-MEL-5 melanoma it was 0.129 µM. The GI50 with SNB-19 CNS is 0.0536 µM; in the assay on TK-10 renal it was 27.7 µM. The TGI is above 100 µM in the assay on A549 NSCLC; above 100 µM in the assay on KM12 colon; above 100 µM in the assay on NCI-H522 lung; 0.981 µM in the assay with SF-295 CNS; 0.323 µM in the assay with SF-539 CNS; 0.403 µM in the assay with SK-MEL-5 melanoma. The TGI with SNB-19 CNS and in the assay on TK-10 renal was above 100 µM each time.
As for `Cc1cc([N+](=O)[O-])ccc1Nc1cccc(Cl)c1C`, the TGI with A549 NSCLC stood at 40.2 µM; with KM12 colon, 31 µM; in the assay with M14 melanoma, 29.1 µM; in the assay on NCI-H522 lung, 31 µM; with OVCAR-5 ovarian, 28.8 µM; in the assay with SF-295 CNS, 34.6 µM. The TGI in the assay on SK-MEL-5 melanoma amounted to 29.1 µM; with SNB-19 CNS, 42.9 µM; in the assay on TK-10 renal, 30 µM.
As to `Cc1cc(CC(O)c2ccc(Cl)c(Cl)c2)nc(=O)[nH]1` (centres undefined), the TGI with A549 NSCLC was 66 µM; in the assay on KM12 colon it was above 100 µM; in the assay with M14 melanoma it was above 100 µM; in the assay with NCI-H522 lung it was 69.9 µM; with OVCAR-5 ovarian, above 100 µM; with SF-295 CNS it was 90 µM. In addition, the TGI in the assay on SK-MEL-5 melanoma, in the assay with SNB-19 CNS and with TK-10 renal was above 100 µM each time.
On to `S=C1NC2(CCCCCC2)NN1c1ccccc1`, for which the TGI in the assay on A549 NSCLC, in the assay on KM12 colon, in the assay on M14 melanoma, in the assay on NCI-H522 lung, in the assay on OVCAR-5 ovarian and in the assay on SF-295 CNS was above 100 µM each time. Also, the TGI in the assay on SK-MEL-5 melanoma, with SNB-19 CNS and in the assay on TK-10 renal was above 100 µM throughout.
As to `C=C1C(=O)O[C@@H]2C[C@@H]1CC/C(C)=C/CC/C(C)=C/CC[C@@]2(C)O`, the GI50 in the assay on A549 NSCLC is 18.2 µM; in the assay with KM12 colon, 3.31 µM; in the assay with M14 melanoma, 2.04 µM; in the assay on NCI-H522 lung it was 6.36 µM; in the assay on OVCAR-5 ovarian, 22.1 µM; in the assay with SF-295 CNS, 16.6 µM. Besides, the figures for the GI50 in the assay with SF-539 CNS, in the assay on SK-MEL-5 melanoma and in the assay on SNB-19 CNS were 22.3 µM, 16.2 µM and 28.4 µM, respectively. Further, the TGI was found to be 41.2 µM in the assay on A549 NSCLC; 13.2 µM in the assay on KM12 colon; 8.37 µM in the assay with M14 melanoma; 23.7 µM with NCI-H522 lung; 39.4 µM with OVCAR-5 ovarian; 32.2 µM in the assay on SF-295 CNS. In addition, the TGI was found to be 42.5 µM in the assay with SF-539 CNS, 36.4 µM in the assay on SK-MEL-5 melanoma and 76.2 µM in the assay with SNB-19 CNS.
With `COc1ccc2c3c([nH]c2c1[N+](=O)[O-])C(C)=NCC3`, the TGI in the assay with A549 NSCLC, with KM12 colon, in the assay with M14 melanoma, in the assay on NCI-H522 lung, with OVCAR-5 ovarian and with SF-295 CNS was above 100 µM throughout. Besides, the TGI with SF-539 CNS, in the assay on SNB-19 CNS and in the assay on TK-10 renal was above 100 µM in each case.
Regarding `COc1ccc(C(=O)C(c2ccc(OC)cc2)C2(O)C(=O)Nc3ccc([N+](=O)[O-])cc32)cc1` (centres undefined), the TGI with A549 NSCLC, in the assay with KM12 colon, with M14 melanoma, with NCI-H522 lung, with OVCAR-5 ovarian and in the assay with SF-295 CNS was above 100 µM each time. The TGI with SF-539 CNS is 24 µM; in the assay with SNB-19 CNS, above 100 µM; in the assay with TK-10 renal, above 100 µM.
Take `CN(C)N=Nc1ccc(NC=O)cc1`: the TGI in the assay with A549 NSCLC, in the assay with KM12 colon, with M14 melanoma, with OVCAR-5 ovarian, in the assay on SF-295 CNS and in the assay with SF-539 CNS was above 100 µM each time. Besides, the TGI in the assay with SK-MEL-5 melanoma, in the assay with SNB-19 CNS and with TK-10 renal was above 100 µM each time.
Consider `CN(C)/C=N/c1nc2c(ncn2C2OC(CO)C(O)C2O)c(=O)[nH]1` (centres undefined), for which the TGI with A549 NSCLC, in the assay on KM12 colon, in the assay on M14 melanoma, in the assay with OVCAR-5 ovarian, with SF-295 CNS and in the assay on SF-539 CNS was above 100 µM each time. In addition, the TGI in the assay on SK-MEL-5 melanoma, in the assay with SNB-19 CNS and with TK-10 renal was above 100 µM in each case.
Take `COc1cccc(/C=C/c2cc(OC)c(OC)c(OC)c2)c1`: the TGI in the assay with A549 NSCLC, in the assay with KM12 colon, in the assay on M14 melanoma, in the assay with NCI-H522 lung, in the assay on OVCAR-5 ovarian and in the assay on SF-539 CNS was above 100 µM in each case. Further, the TGI with SK-MEL-5 melanoma and with SNB-19 CNS was above 100 µM each time.
